Columns and labels:
Format in all cases: biochemical
PDE1A3 = PDE1A3 (Homo sapiens, UniProt P54750); test: In vitro HTRF PDE1 inhibition assay (PDE1A3)
Source text: (§1) An exemplary procedure for the in vitro Homogenous Time Resolved Fluorescence assay, which can be used to determine the inhibitory action of compounds of the invention toward PDE1 or its isoforms, follows. The HTRF PDE1 assay utilized the HTRF (Homogenous Time Resolved Fluorescence) technology, which is based on the competition between unlabeled cyclic nucleotide and cyclic nucleotide labeled with XL665 for the binding to cyclic nucleotide-specific antibody labeled with cryptate. The HTRF signal is thus inversely proportional to the concentration of cyclic nucleotide being measured. Since phosphodiesterases break down cyclic nucleotides the HTRF signal was used to determine PDE activity. The Cisbio cGMP HTRF assay kit (Cat no: 62GM2PEC) was utilized. Cyclic GMP was diluted to 200 nM in HTRF assay buffer (1 mM CaCl2, 10 mM MgCl2, 10 mM Tris-HCl, 0.1% BSA, pH 7.4). 10 μl of compound or DMSO was diluted in 200 nM cyclic GMP solution and added to wells of a 96 well white plate to give 100 nM cyclic GMP in 1% DMSO final concentration. PDE (1A3, 1B or IC) was diluted to 2× working concentration in HTRF assay buffer with 2 μg/ml calmodulin, and 10 μl was added to initiate the reaction. The plate was then incubated for 45 minutes at 37° C. d2-Labelled cyclic GMP and anti-cGMP cryptate were diluted in 50 mM phosphate buffer, 0.8 M KF, 1% Triton X100, 0.2% BSA, pH 7.0. Following incubation 10 μl d2-cGMP, then 10 μl anti cGMP cryptate were added to each well and the plate was incubated for 45 minutes at room temperature. The plate was then read on Perkin Elmer Victor at 2 different FRET readings ex/emm 340 nm/665 nm and 340 nm/615 nm. Compounds having an IC50 of <1 μM, are denoted as +++. Compounds having an IC50 of 1−10 μM, are denoted as ++. Compounds having an IC50 of 10-100 μM, are denoted as +.

PDE1C = PDE1C (Homo sapiens, UniProt Q14123); test: In vitro HTRF PDE1 inhibition assay (PDE1C)
Source text: as §1

PDE1B = PDE1B (Homo sapiens, UniProt Q01064); test: In vitro HTRF PDE1 inhibition assay (PDE1B)
Source text: as §1

Row | SMILES | IC50 (PDE1B; Table 25) [nM] | IC50 (PDE1B; Table 22) [nM] | other results
1 | O=c1c2cnc(C3CCOCC3)n2nc2n1CCCN2CC1CCC(F)(F)CC1 [Example 190] | < 1000 | – | IC50 (PDE1A3; Table 26): < 1000 nM; IC50 (PDE1C; Table 27): < 1000 nM
2 | O=c1c2cnc(C3CCOCC3)n2nc2n1CCN2CC1(C(F)(F)F)CC1 [Example 159] | < 1000 | – | IC50 (PDE1A3; Table 26): < 1000 nM; IC50 (PDE1C; Table 27): < 1000 nM
3 | CCN1c2nn3c(C4CCOCC4)ncc3c(=O)n2CC[C@@H]1c1ccc(Cl)cc1 [Example 70] | – | < 1000 | IC50 (PDE1A3; Table 23): < 1000 nM; IC50 (PDE1C; Table 24): 1000 to 10000 nM
4 | CC(C)c1ncc2c(=O)n3c(nn12)N(Cc1ccc(C#N)cc1)CCC3 [Example 30] | – | < 1000 | IC50 (PDE1A3; Table 23): < 1000 nM; IC50 (PDE1C; Table 24): < 1000 nM
5 | O=c1c2cnc(C3CCOCC3)n2nc2n1CCCN2CCC1(C(F)(F)F)CC1 [Example 188] | – | – | IC50 (PDE1A3; Table 26): < 1000 nM; IC50 (PDE1C; Table 27): < 1000 nM
6 | CC(C)c1ncc2c(=O)n3c(nn12)N(CC1CCOCC1)CC3 [Example 1, 8-Isopropyl-1-((tetrahydro-2H-pyran-4-yl)methyl)-2,3-dihydrodiimidazo[2,1-c:1′,5′-f][1,2,4]triazin-5(1H)-one] | – | < 1000 | IC50 (PDE1A3; Table 23): < 1000 nM; IC50 (PDE1C; Table 24): 1000 to 10000 nM
7 | CCO[C@H]1CC[C@H](CN2CCCn3c2nn2c(C4CCOCC4)ncc2c3=O)CC1 [Example 193] | < 1000 | – | IC50 (PDE1A3; Table 26): < 1000 nM; IC50 (PDE1C; Table 27): < 1000 nM
8 | CC(C)c1ncc2c(=O)n3c(nn12)N(CC1CCOCC1)CCC3 [Example 25] | – | < 1000 | IC50 (PDE1A3; Table 23): < 1000 nM; IC50 (PDE1C; Table 24): < 1000 nM
9 | CC(C)n1ncc2c(=O)n3c(nc21)N(CC1CCOCC1)CCC3 [Example 78] | – | < 1000 | IC50 (PDE1A3; Table 23): < 1000 nM; IC50 (PDE1C; Table 24): 1000 to 10000 nM
10 | CO[C@H]1CC[C@H](CN2CCCn3c2nn2c(C4CCOCC4)ncc2c3=O)CC1 [Example 191] | < 1000 | – | IC50 (PDE1A3; Table 26): < 1000 nM; IC50 (PDE1C; Table 27): < 1000 nM
11 | CC(C)n1ncc2c(=O)n3c(nc21)N(Cc1ccc(-c2ccccn2)cc1)CC3 [Example 75] | – | < 1000 | IC50 (PDE1A3; Table 23): < 1000 nM; IC50 (PDE1C; Table 24): < 1000 nM
12 | CC(C)c1ncc2c(=O)n3c(nn12)N(Cc1ccc(C#N)cc1)CCCC3 [Example 52] | – | < 1000 | –
13 | CC(C)c1ncc2c(=O)n3c(nn12)N(CCCc1cccc(F)c1)CCC3 [Example 122] | – | < 1000 | –
14 | CC(C)c1ncc2c(=O)n3c(nn12)N(CCCCO)CC3 [Example 100, 1-(4-Hydroxybutyl)-8-isopropyl-2,3-dihydro-1H,5H-diimidazo[2,1-c:5′,1′-f][1,2,4]triazin-5-one] | – | < 1000 | –
15 | O=c1c2cnc(C3CCOCC3)n2nc2n1CCN2CCC1CC1 [Example 149] | < 1000 | – | –
16 | CCc1ccc(C2Cn3c(nn4c(C(C)C)ncc4c3=O)N2CC)cn1 (stereo not drawn) [Example 95] | – | 1000 to 10000 | –
17 | CC(C)c1ncc2c(=O)n3c(nn12)N(CCCC(O)CO)CCC3 (stereo not drawn) [Example 111, 1-(4,5-Dihydroxypentyl)-9-isopropyl-1,2,3,4-tetrahydro-6H-imidazo[51-f]pyrimido[2,1-c][1,2,4]triazin-6-one] | – | < 1000 | –
18 | COCCN1CCCn2c1nn1c(C(C)C)ncc1c2=O [Example 23] | – | < 1000 | –
19 | CC(C)c1ncc2c(=O)n3c(nn12)OC(c1ccccc1)CC3 (stereo not drawn) [Example 126, 9-Isopropyl-2-phenyl-3,4-dihydroimidazo[5,1-f][1,3]oxazino[2,3-c][1,2,4]triazin-6(2H)-one] | – | < 1000 | –
20 | CC(C)n1ncc2c(=O)n3c(nc21)N(Cc1ccc(C2CCOCC2)cc1)CC3 [Example 204] | < 1000 | – | –

Row | SMILES | IC50 (PDE1B; Table 25) [nM] | IC50 (PDE1B; Table 22) [nM] | other results
21 | CC(C)c1ncc2c(=O)n3c(nn12)N(CCC1CCNCC1)CCC3 [Example 113, 9-Isopropyl-1-[2-(4-piperidinyl)ethyl]-1,2,3,4-tetrahydro-6H-imidazo[5,1-f]pyrimido[2,1-c][1,2,4]triazin-6-one] | – | 1000 to 10000 | –
22 | O=c1c2cnc(C3CCOCC3)n2nc2n1CCCN2CCCCCO [Example 109] | – | < 1000 | –
23 | CCCN1c2nn3c(C4CCOCC4)ncc3c(=O)n2CC1c1ccc(OC)cc1 (racemic) [Example 67] | – | < 1000 | –
24 | CCc1ccc([C@@H]2Cn3c(nn4c(C5CCOCC5)ncc4c3=O)N2CC(C)C)cn1 [Example 93] | – | 10000 to 100000 | –
25 | COc1ccccc1CN1CCn2c1nn1c(C3CCOCC3)ncc1c2=O [Example 150] | < 1000 | – | –
26 | CC(C)c1ncc2c(=O)n3c(nn12)N(Cc1ccc(Cl)cn1)CCC3 [Example 177] | < 1000 | – | –
27 | CC(C)c1ncc2c(=O)n3c(nn12)N(CCCc1ccncc1)CC3 [Example 13] | – | < 1000 | –
28 | COC(C)c1ncc2c(=O)n3c(nn12)N(CCC(C)(C)C)CCC3 (stereo not drawn) [Example 180] | < 1000 | – | –
29 | CC(C)c1ncc2c(=O)n3c(nn12)N(Cc1cccc(Cl)c1)CCC3 [Example 33] | – | < 1000 | –
30 | CC(C)c1ncc2c(=O)n3c(nn12)N(CCCc1cccnc1)CCC3 [Example 40] | – | < 1000 | –
31 | CO[C@H]1CC[C@@H](CN2CCCn3c2nn2c(C4CCOCC4)ncc2c3=O)CC1 [Example 194] | < 1000 | – | –
32 | CC(C)c1ncc2c(=O)n3c(nn12)N(CCc1ccncc1)CCC3 [Example 41] | – | < 1000 | –
33 | CC(C)c1ncc2c(=O)n3c(nn12)N(CCCc1ccc(F)cc1)CCC3 [Example 47] | – | < 1000 | –
34 | CC(C)n1ncc2c(=O)n3c(nc21)N(CC1CCOCC1)CC3 [Example 73] | – | < 1000 | –
35 | O=c1c2cnn(C3CCOCC3)c2nc2n1CCCN2Cc1ccc(-c2ccc(F)cn2)cc1 [Example 221] | < 1000 | – | –
36 | CC(C)c1ncnc2c(=O)n3c(nc12)N(Cc1ccc(C#N)cc1)CC3 [Example 82] | – | < 1000 | –
37 | CC1CN(Cc2ccc(C#N)cc2)c2nn3c(C(C)C)ncc3c(=O)n2C1 (stereo not drawn) [Example 65] | – | < 1000 | –
38 | COCCCCN1CCn2c1nn1c(C(C)C)ncc1c2=O [Example 7] | – | < 1000 | –
39 | O=c1c2cnc(C3CCOCC3)n2nc2n1CC(c1ccc(Cl)cc1)C2 (stereo not drawn) [Example 138, 7-(4-Chlorophenyl)-3-(tetrahydro-2H-pyran-4-yl)-7,8-dihydro-6H,10H-imidazo[5,1-f]pyrrolo[2,1-c][1,2,4]triazin-10-one] | – | 1000 to 10000 | –
40 | CC(C)CCN1CCn2c1nn1c(C3CCOCC3)nc(Cl)c1c2=O [Example 236, 6-Chloro-1-(3-methylbutyl)-8-(tetrahydro-2H-pyran-4-yl)-2,3-dihydro-1H,5H-diimidazo[2,1-c:5′,1′-f][1,2,4]triazin-5-one] | < 1000 | – | –

Row | SMILES | IC50 (PDE1B; Table 25) [nM] | IC50 (PDE1B; Table 22) [nM] | other results
41 | O=c1c2cnc(C3CCOCC3)n2nc2n1CCCN2CC1CC1(F)F (stereo not drawn) [Example 197] | < 1000 | – | –
42 | O=c1c2cnc(C3CCOCC3)n2nc2n1CCN2CC1CCC1 [Example 151] | < 1000 | – | –
43 | CCc1ccc(C2Cn3c(nn4c(C(C)C)ncc4c3=O)N2CC(C)C)cn1 (stereo not drawn) [Example 98] | – | 1000 to 10000 | –
44 | O=c1c2cnn(C3CCOCC3)c2nc2n1CCCN2Cc1ccc(Cl)cn1 [Example 217] | < 1000 | – | –
45 | CCCN1c2nn3c(C(C)C)ncc3c(=O)n2CC1c1ccc(CC)nc1 (stereo not drawn) [Example 97] | – | 1000 to 10000 | –
46 | CC(C)c1ncc2c(=O)n3c(nn12)N(CCOCCO)CCC3 [Example 107] | – | 1000 to 10000 | –
47 | CC(C)c1ncc2c(=O)n3c(nn12)N(CCc1ccc(F)cc1)CCC3 [Example 45] | – | < 1000 | –
48 | O=c1c2cnc(C3CCC3)n2nc2n1CCN2Cc1ccc(Cl)cn1 [Example 144] | < 1000 | – | –
49 | CC(C)n1ncc2c(=O)n3c(nc21)N(Cc1ccc(-c2ccccn2)cc1)CCC3 [Example 215] | < 1000 | – | –
50 | CC(C)c1ncc2c(=O)n3c(nn12)N(CCCc1ccccc1F)CCC3 [Example 46] | – | < 1000 | –
51 | Cc1nc(C2CCOCC2)n2nc3n(c(=O)c12)CCN3CCC(C)C [Example 234, 6-Methyl-1-(3-methylbutyl)-8-(tetrahydro-2H-pyran-4-yl)-2,3-dihydro-1H,5H-diimidazo[2,1-c:5′,1′-f][1,2,4]triazin-5-one] | 1000 to 10000 | – | –
52 | CC(C)c1ncc2c(=O)n3c(nn12)N(CCC1CCN(C)CC1)CCC3 [Example 114, 9-Isopropyl-1-[2-(1-methyl-4-piperidinyl)ethyl]-1,2,3,4-tetrahydro-6H-imidazo[5,1-f]pyrimido[2,1-c][1,2,4]triazin-6-one] | – | < 1000 | –
53 | CC(C)c1ncc2c(=O)n3c(nn12)OC(Cc1ccc(Cl)cc1)CC3 (stereo not drawn) [Example 132] | – | < 1000 | –
54 | CO[C@H](C)c1ncc2c(=O)n3c(nn12)N(CCCC(F)(F)F)CC3 [Example 231] | 1000 to 10000 | – | –
55 | CC(C)c1ncc2c(=O)n3c(nn12)N(Cc1ccncc1)CCC3 [Example 35] | – | < 1000 | –
56 | O=c1c2cnc(C3CCOCC3)n2nc2n1CCCN2CCc1ccccc1 [Example 62] | – | < 1000 | –
57 | COc1cccc(C2CCn3c(nn4c(C(C)C)ncc4c3=O)O2)c1 (stereo not drawn) [Example 128] | – | 1000 to 10000 | –
58 | O=c1c2cnc(C3CCC3)n2nc2n1CCN2CC1CCOCC1 [Example 143] | < 1000 | – | –
59 | COc1ccc(C2CCn3c(nn4c(C(C)C)ncc4c3=O)O2)cc1 (stereo not drawn) [Example 129] | – | < 1000 | –
60 | CC(C)n1ncc2c(=O)n3c(nc21)N(Cc1ccc(-c2ccc(F)cn2)cc1)CC3 [Example 205] | < 1000 | – | –

— patent publication US20170273985A1, “TRICYCLIC DERIVATIVE” (Sunovion Pharmaceuticals Inc., priority 2014, published 2017)
